Results as given in patent publication US20020031795A1, “Nitrocoumarins for detecting all micro-organisms” (priority 1998, published 2002).

Key:
[1] = tested on: E. coli (NCTC strain 10418); assay: Fluorescent signal generated by E. coli reducing nitrocoumarins (nitroaryl reductase activity); type: cell-based, Escherichia coli; settings: 0.105 mmol/l; for Extent of reduction of the substrate (in words): end of the four-hour assay
Procedure: (§1) A sample of the 7-nitrocoumarin derivative is dissolved in 4 ml of hot, distilled water. The mass dissolved to make the stock solution is such that the final concentration of the compound in the assay is 0.105 mmol/l. This solution is added to 96 ml of Mueller-Hinton broth and the mixture is sterile-filtered.
(§2) The E. coli was grown for 24 hours at 35° C. on Columbia agar supplemented with sheep blood. The bacteria were then resuspended in sterile, distilled water and their density was adjusted to 0.5 on the MacFarland scale (i.e. about 10^8 cells/ml). This suspension was then diluted 100-fold in sterile Mueller-Hinton broth (i.e. to a final density of about 10^6 cells/ml).
(§3) Fifty microliters of each nitrocoumarin solution plus 50 μl of bacterial suspension were then added to the wells of a microtiter plate. The plates were incubated at 35° C. and the optical density and fluorescence of each well was read every 30 min for a total of 4 hours. Optical density (690 nm) readings were made using an Anthos 2001 spectrophotometer (Labtech International Limited), and fluorescence (excitation at 365 nm and emission at 440 nm) readings were made on a Biolite F1 2001 fluorometer (Labtech International Limited).
(§4) The effect of the concentration of 7-nitrocoumarin-3-carboxylic acid on the sensitivity of the assay to detect E. coli (NCTC strain 10418) was investigated at concentrations of the indicator ranging from 0 to 0.262 mmol/l. All other conditions were identical to those described in section A above.

[2] = tested on: Escherichia coli (NCTC 10418); assay: Growth of E. coli in Mueller-Hinton broth in the presence of nitrocoumarins (optical density 690 nm); type: cell-based; settings: 0.105 mmol/l
Procedure: as §1, §2, §3, §4

## CC(=O)c1c(C)c2ccc([N+](=O)[O-])cc2oc1=O [3-acetyl-4-methyl-7-nitrocoumarin]
[1]; 0 min
  Fluorescent signal: 0
[1]; 30 min
  Fluorescent signal: 40
[1]; 60 min
  Fluorescent signal: 390
[1]; 90 min
  Fluorescent signal: 992
[1]; 120 min
  Fluorescent signal: 1804
[1]; 150 min
  Fluorescent signal: 2811
[1]; 180 min
  Fluorescent signal: 4090
[1]; 210 min
  Fluorescent signal: 5576
[1]; 240 min
  Fluorescent signal: 8017
[2]; 0 min
  Optical density (690 nm): 0.000
[2]; 30 min
  Optical density (690 nm): −0.003
[2]; 60 min
  Optical density (690 nm): −0.002
[2]; 90 min
  Optical density (690 nm): −0.001
[2]; 120 min
  Optical density (690 nm): 0.002
[2]; 150 min
  Optical density (690 nm): 0.008
[2]; 180 min
  Optical density (690 nm): 0.023
[2]; 210 min
  Optical density (690 nm): 0.051
[2]; 240 min
  Optical density (690 nm): 0.110

## CCCC(=O)c1cc2ccc([N+](=O)[O-])cc2oc1=O [3-butyryl-7-nitrocoumarin]
[1]; 0 min
  Fluorescent signal: 0
[1]; 30 min
  Fluorescent signal: 64
[1]; 60 min
  Fluorescent signal: 387
[1]; 90 min
  Fluorescent signal: 894
[1]; 120 min
  Fluorescent signal: 1538
[1]; 150 min
  Fluorescent signal: 2344
[1]; 180 min
  Fluorescent signal: 3329
[1]; 210 min
  Fluorescent signal: 4642
[1]; 240 min
  Fluorescent signal: 6845
[1]
  Extent of reduction of the substrate (in words): least reduced
[2]
  Inhibitory effect on the growth of E. coli (in words): most powerful inhibitors
[2]; 0 min
  Optical density (690 nm): 0.000
[2]; 30 min
  Optical density (690 nm): 0.001
[2]; 60 min
  Optical density (690 nm): 0.005
[2]; 90 min
  Optical density (690 nm): 0.007
[2]; 120 min
  Optical density (690 nm): 0.009
[2]; 150 min
  Optical density (690 nm): 0.012
[2]; 180 min
  Optical density (690 nm): 0.015
[2]; 210 min
  Optical density (690 nm): 0.039
[2]; 240 min
  Optical density (690 nm): 0.096

## Cc1cc(=O)oc2cc([N+](=O)[O-])ccc12 [4-methyl-7-nitrocoumarin]
[1]; 0 min
  Fluorescent signal: 0
[1]; 30 min
  Fluorescent signal: 15
[1]; 60 min
  Fluorescent signal: 302
[1]; 90 min
  Fluorescent signal: 974
[1]; 120 min
  Fluorescent signal: 2008
[1]; 150 min
  Fluorescent signal: 3299
[1]; 180 min
  Fluorescent signal: 5097
[1]; 210 min
  Fluorescent signal: 7545
[1]; 240 min
  Fluorescent signal: 11125
[2]; 0 min
  Optical density (690 nm): 0.000
[2]; 30 min
  Optical density (690 nm): 0.000
[2]; 60 min
  Optical density (690 nm): 0.002
[2]; 90 min
  Optical density (690 nm): 0.004
[2]; 120 min
  Optical density (690 nm): 0.010
[2]; 150 min
  Optical density (690 nm): 0.024
[2]; 180 min
  Optical density (690 nm): 0.055
[2]; 210 min
  Optical density (690 nm): 0.113
[2]; 240 min
  Optical density (690 nm): 0.175

## O=C(c1cc2ccc([N+](=O)[O-])cc2oc1=O)N1CCOCC1 [7-nitrocoumarin-3-carboxymorpholide]
[1]; 0 min
  Fluorescent signal: 0
[1]; 30 min
  Fluorescent signal: 180
[1]; 60 min
  Fluorescent signal: 665
[1]; 90 min
  Fluorescent signal: 1376
[1]; 120 min
  Fluorescent signal: 2414
[1]; 150 min
  Fluorescent signal: 3796
[1]; 180 min
  Fluorescent signal: 5817
[1]; 210 min
  Fluorescent signal: 8454
[1]; 240 min
  Fluorescent signal: 12263
[2]; 0 min
  Optical density (690 nm): 0.000
[2]; 30 min
  Optical density (690 nm): −0.002
[2]; 60 min
  Optical density (690 nm): −0.001
[2]; 90 min
  Optical density (690 nm): 0.001
[2]; 120 min
  Optical density (690 nm): 0.005
[2]; 150 min
  Optical density (690 nm): 0.014
[2]; 180 min
  Optical density (690 nm): 0.037
[2]; 210 min
  Optical density (690 nm): 0.068
[2]; 240 min
  Optical density (690 nm): 0.109

## O=c1ccc2ccc([N+](=O)[O-])cc2o1 [7-nitrocoumarin]
[1]; 0 min
  Fluorescent signal: 0
[1]; 30 min
  Fluorescent signal: 77
[1]; 60 min
  Fluorescent signal: 519
[1]; 90 min
  Fluorescent signal: 1447
[1]; 120 min
  Fluorescent signal: 2915
[1]; 150 min
  Fluorescent signal: 4713
[1]; 180 min
  Fluorescent signal: 7160
[1]; 210 min
  Fluorescent signal: 10182
[1]; 240 min
  Fluorescent signal: 14189
[2]; 0 min
  Optical density (690 nm): 0.000
[2]; 30 min
  Optical density (690 nm): −0.002
[2]; 60 min
  Optical density (690 nm): 0.000
[2]; 90 min
  Optical density (690 nm): 0.002
[2]; 120 min
  Optical density (690 nm): 0.009
[2]; 150 min
  Optical density (690 nm): 0.025
[2]; 180 min
  Optical density (690 nm): 0.072
[2]; 210 min
  Optical density (690 nm): 0.133
[2]; 240 min
  Optical density (690 nm): 0.211

## CCOC(=O)c1cc2ccc([N+](=O)[O-])cc2oc1=O [ethyl-7-nitrocoumarin-3-carboxylate]
[1]; 0 min
  Fluorescent signal: 0
[1]; 30 min
  Fluorescent signal: 173
[1]; 60 min
  Fluorescent signal: 814
[1]; 90 min
  Fluorescent signal: 1703
[1]; 120 min
  Fluorescent signal: 2813
[1]; 150 min
  Fluorescent signal: 4126
[1]; 180 min
  Fluorescent signal: 5646
[1]; 210 min
  Fluorescent signal: 7370
[1]; 240 min
  Fluorescent signal: 10859
[2]; 0 min
  Optical density (690 nm): 0.000
[2]; 30 min
  Optical density (690 nm): −0.005
[2]; 60 min
  Optical density (690 nm): −0.008
[2]; 90 min
  Optical density (690 nm): −0.008
[2]; 120 min
  Optical density (690 nm): −0.006
[2]; 150 min
  Optical density (690 nm): 0.000
[2]; 180 min
  Optical density (690 nm): 0.018
[2]; 210 min
  Optical density (690 nm): 0.046
[2]; 240 min
  Optical density (690 nm): 0.116

## COC(=O)c1cc2ccc([N+](=O)[O-])cc2oc1=O [methyl-7-nitrocoumarin-3-carboxylate]
[1]; 0 min
  Fluorescent signal: 0
[1]; 30 min
  Fluorescent signal: 174
[1]; 60 min
  Fluorescent signal: 702
[1]; 90 min
  Fluorescent signal: 1297
[1]; 120 min
  Fluorescent signal: 2035
[1]; 150 min
  Fluorescent signal: 2905
[1]; 180 min
  Fluorescent signal: 3946
[1]; 210 min
  Fluorescent signal: 5005
[1]; 240 min
  Fluorescent signal: 6668
[1]
  Extent of reduction of the substrate (in words): least reduced
[2]
  Inhibitory effect on the growth of E. coli (in words): most powerful inhibitors
  OD readings reduced compared with the untreated control: 92%
[2]; 0 min
  Optical density (690 nm): 0.000
[2]; 30 min
  Optical density (690 nm): −0.001
[2]; 60 min
  Optical density (690 nm): −0.001
[2]; 90 min
  Optical density (690 nm): 0.000
[2]; 120 min
  Optical density (690 nm): 0.000
[2]; 150 min
  Optical density (690 nm): 0.002
[2]; 180 min
  Optical density (690 nm): 0.006
[2]; 210 min
  Optical density (690 nm): 0.014
[2]; 240 min
  Optical density (690 nm): 0.032
